The values below come from patent US4308273A, “1,6-Naphthyridine derivatives, and antidinic and cerebral circulation improver containing such derivatives” (Nippon Kayaku Kabushiki Kaisha, priority 1978, dated 1981).

Series [1] is described as follows: Inhibition of spontaneous nystagmus produced by unilateral destruction of the labyrinth (anti-vertigo action). The conditions noted are these: cats; for inhibition at 12 mg/kg / inhibition at 6 mg/kg: Felis catus, iv, read-out: Effect of compounds on the nystagmus expressed as inhibitory percentage. It counts as in vivo. As to the method:
(1) It is well known that vertigo resulting from the disturbance of the peripheral labyrinth is accompanied by nystagmus. So, we acutely produced the spontaneous nystagmus by unilateral destruction of the labyrinth in cats and used it as an experimental model of vertigo. a pair of Ag--AgCl cup electrodes was placed laterally to both orbits and an indifferent electrode on the forehead. The nystagmus was recorded through an amplifier. The inhibitory effect of the compounds on the nystagmus was expressed by [formula] where A is the frequency of the nystagmus in ten seconds before administration of the compounds and B is the frequency of the nystagmus at the maximum inhibitory point after administration. The duration of the effect was also measured. Compounds dissolved in saline were injected into the femoral vein. Betahistine and diphenidol were used as standard drugs.
A: Doses of compounds injected intraveneously.
B: Effect of compounds on the nystagmus expressed as inhibitory
C: Duration of the effect of compounds

The nature of series [2]: Acute toxicity (LD50) by intraperitoneal injection. To be noted: mouse, in vivo, ip. As to the method: LD50 values of the compounds by intraperitoneal injection in mice were determined.
Series [3] is described as follows: Cerebral vasodilating action: vertebral arterial flow, intra-arterial injection. In kind it is in vivo. The conditions noted are these: Canis lupus familiaris; dogs, 1 mg intraarterially; read-out: Percent increase in vertebral arterial flow when injected intraarterially. On the procedure: A: Percent increase in vertebral arterial flow when injected
intraarterially (1 mg) to dogs.
(1) For the experimental evaluation of cerebral vasodilating action, the canine vertebral arterial preparation was used. The carotid arterial blood was led to the vertebral artery by a short extracorporeal loop. The vertebral arterial flow was measured by an electromagnetic flow transducer inserted in the circuit. The action of the compounds on the vertebral arterial flow was expressed by percent increase when 1 mg of each compound was injected intra-arterially.

Series [4] can be described thus: Effects of intravenous injection on mean arterial pressure, heart rate and vertebral arterial flow in anesthetized dogs. To be noted: for change in vivo at 1 mg/kg: Canis lupus familiaris, iv, read-out: Percent increase in vertebral arterial flow when injected intravenously; for Changes in heart rate when injected intravenously / Changes in systemic blood pressure when injected intravenously: anesthetized dogs, 1 mg/kg intravenously.
Method: (§1) Pressure in the carotid artery was measured by a pressure transducer and mean arterial pressure was obtained by electrical integration. Heart rate was obtained by a cardiotachometer, triggered by a signal from the pressure pulse. The vertebral arterial flow was measured by fitting an electromagnetic flow transducer. The action on systemic mean arterial pressure, heart rate and vertebral arterial flow were represented by Δ mmHg, Δ beats/min and percent increase.

The conditions of series [5]: dog, in vivo, iv, 1 mg/kg.
Method: as §1
Series [6] is described as follows: Effect on the hexobarbital-induced sleeping time. To be noted: male mice, 50 mg/kg subcutaneously, 15 min prior to sodium hexobarbital i.p.
Method: (§2) Groups consisted of 10 male-mice were administered the compounds or saline subcutaneously 15 min. prior to an intraperitoneal injection of sodium hexobarbital. Sleeping time for each animal in a group was measured. The averaged value of sleeping time in each group was calculated. The action of the sleeping time was expressed by the percentage of the sleeping time in the compound-treated groups to that in the saline-treated group.
(§3) D: Sleeping time of the compound (50 mg/kg, subcutaneously)treated groups
(§4) expressd as percentage to that of the control group.
The conditions of series [7]: mouse, in vivo, 50 mg/kg.
Method: as §2, §3, §4
Setting [8] is: 12 mg/kg injected intravenously.
Where [9] appears, read: male mice, intraperitoneal injection (Table 3).
[10] abbreviates: mice, intraperitoneal injection (Table 4).

Structures are written as SMILES. Read-outs that look alike come from different tables or passages of the source.

Broadly, the LD50 is the dose at which mortality reaches 50%. Read a high LD50 as lower toxicity. For the molecule `CCCCCCCN1CCc2ncccc2C1` [Compound 9], in series [1] (setting [8]), the inhibition at 12 mg/kg came out at 79% and the “Duration of the effect of compounds (nystagmus)” value (“Duration” below) is listed as 10 min. The LD50 in series [2] (setting [9]) turned out to be 208 mg/kg. Besides, in series [3], the change in vivo at 1 mg turned out to be 78%. In series [4], the change in vivo at 1 mg/kg is 15.5%, the “Changes in heart rate when injected intravenously” value (from here on “Changes in heart rate”) is “+8 Δ beats/min” and the “Changes in systemic blood pressure when injected intravenously” value (“Changes in systemic blood pressure” for short) was -20.0 Δ mmHg.
On to `c1ccc(CN2CCc3ncccc3C2)cc1` [Compound 31], for which, in series [1] (setting [8]), the inhibition at 12 mg/kg turned out to be 57% and the “Duration” value worked out at 9 min. In series [2] (setting [9]), this molecule returned an LD50 of 262 mg/kg. Further, the change in vivo at 1 mg in series [3] worked out at 90%. In series [4], the change in vivo at 1 mg/kg worked out at 36%, the “Changes in heart rate” value is “+16 Δ beats/min” and the “Changes in systemic blood pressure” value is listed as -12.0 Δ mmHg.
Turning to `CNCCc1ccccn1` [betahistine, reference compound], in series [1] (6 mg/kg injected intravenously), the inhibition at 6 mg/kg came out at 55% and the “Duration” value is given as 5 min. In series [1] (setting [8]), the inhibition at 12 mg/kg was 80% and the “Duration” value is 8 min. In series [2] (setting [9]), this molecule gave an LD50 of 864 mg/kg. Also, the change in vivo at 1 mg in series [3] was determined as 90%. In series [5], the “Changes in heart rate” value is “+52 Δ beats/min” and the “Changes in systemic blood pressure” value is -100.0 Δ mmHg. In series [4], the change in vivo at 1 mg/kg turned out to be 14.3%.
For `c1cnc2c(c1)CN(CC1CC1)CC2` [Compound 22], in series [1] (6 mg/kg injected intravenously), the inhibition at 6 mg/kg came to 85% and the “Duration” value is 19 min. Further, in series [1] (setting [8]), the inhibition at 12 mg/kg was 98% and the “Duration” value came out at 35 min. The LD50 in series [2] (setting [9]) amounted to 176 mg/kg. The “Sleeping time of the compound treated groups expressed as percentage to that of the control group” value in series [6] was 114.4%.
`Cc1ccc(CN2CCc3ncccc3C2)cc1` [Compound 34] gave an LD50 in series [2] (setting [10]) of 518 mg/kg. For the same molecule, the change in vivo at 1 mg in series [3] worked out at 93%. In addition, in series [4], the change in vivo at 1 mg/kg came to 18%, the “Changes in heart rate” value is “+8 Δ beats/min” and the “Changes in systemic blood pressure” value is listed as -10.0 Δ mmHg.
Taken in the same sequence, the figures for `COc1ccc(CN2CCc3ncccc3C2)cc1OC` [Compound 46, 5,6,7,8-tetrahydro-6-(3,4-dimethoxybenzyl)-1,6-naphthyridine] were 262 mg/kg, 99%, 50%, “+32 Δ beats/min” and -27.2 Δ mmHg.
Take `Cc1ccc(C)c(C=CCN2CCc3ncccc3C2)c1` [Compound 72]: in series [2] (setting [10]), the LD50 was 242 mg/kg. In addition, the change in vivo at 1 mg in series [3] came to 92%. Also, in series [4], the change in vivo at 1 mg/kg came out at 40%, the “Changes in heart rate” value was “+48 Δ beats/min” and the “Changes in systemic blood pressure” value was -38.3 Δ mmHg.
Taken in the same sequence, the figures for `CC(C)c1cccc(CN2CCc3ncccc3C2)c1` [Compound 36] were 368 mg/kg, 100%, 22%, “+8 Δ beats/min” and -20.0 Δ mmHg.
In the same order, the values of `Clc1ccc(CN2CCc3ncccc3C2)cc1Cl` [Compound 44] are 270 mg/kg, 107%, 30.8%, “+32 Δ beats/min” and -16.7 Δ mmHg.
For the molecule `CCCOc1ccc(CN2CCc3ncccc3C2)cc1OCCC` [Compound 50], the LD50 in series [2] (setting [10]) amounted to 200 mg/kg. In addition, the change in vivo at 1 mg in series [3] worked out at 79%. For the same molecule, in series [5], the “Changes in heart rate” value is “+16 Δ beats/min” and the “Changes in systemic blood pressure” value is on record as -10.0 Δ mmHg. Moreover, the change in vivo at 1 mg/kg in series [4] is 30.6%.
As for `CCCCCCN1CCc2ncccc2C1` [Compound 8], in series [1] (setting [8]), the inhibition at 12 mg/kg is 88% and the “Duration” value is 10 min. The LD50 in series [2] (setting [9]) stood at 194 mg/kg. In addition, the change in vivo at 1 mg in series [3] was found to be 67%. Further, in series [4], the change in vivo at 1 mg/kg was 20.1%, the “Changes in heart rate” value is “+8 Δ beats/min” and the “Changes in systemic blood pressure” value is recorded as -18.5 Δ mmHg.
Turning to `Clc1ccc(C=CCN2CCc3ncccc3C2)c(Cl)c1` [Compound 70], the LD50 in series [2] (setting [10]) is 220 mg/kg. The change in vivo at 1 mg in series [3] worked out at 158%. Besides, in series [4], the change in vivo at 1 mg/kg was 60%, the “Changes in heart rate” value was “+16 Δ beats/min” and the “Changes in systemic blood pressure” value was -11.7 Δ mmHg.
In series [2] (setting [10]), `CC(C)c1ccc(CN2CCc3ncccc3C2)cc1` [Compound 37] had an LD50 of 300 mg/kg. The change in vivo at 1 mg in series [3] was determined as 110%. Moreover, in series [4], the change in vivo at 1 mg/kg was 33.3% and the “Changes in systemic blood pressure” value was -13.3 Δ mmHg.
As to `CCCCOc1ccc(CN2CCc3ncccc3C2)cc1OCCCC` [Compound 51], the change in vivo at 1 mg in series [3] came out at 77%. In addition, in series [5], the “Changes in heart rate” value is listed as 0 Δ beats/min and the “Changes in systemic blood pressure” value is listed as 0 Δ mmHg. Moreover, the change in vivo at 1 mg/kg in series [4] was found to be 16.7%.
In series [2] (setting [10]), `CCCCCCCCCCN1CCc2ncccc2C1` [Compound 11] yielded an LD50 of 156 mg/kg. For the same molecule, the change in vivo at 1 mg in series [3] was determined as 99%. For the same molecule, in series [4], the change in vivo at 1 mg/kg was found to be 25%, the “Changes in heart rate” value was “+8 Δ beats/min” and the “Changes in systemic blood pressure” value is reported as -5.0 Δ mmHg.
In series [2] (setting [10]), `CCCOc1cc(CN2CCc3ncccc3C2)ccc1OC` [Compound 49] yielded an LD50 of 174 mg/kg. Further, the change in vivo at 1 mg in series [3] was determined as 93%. Besides, in series [5], the “Changes in heart rate” value is listed as “+24 Δ beats/min” and the “Changes in systemic blood pressure” value was -11.6 Δ mmHg. Moreover, the change in vivo at 1 mg/kg in series [4] was 21.2%.
Consider `C=CCN1CCc2ncccc2C1` [Compound 12, 5,6,7,8-tetrahydro-6-allyl-1,6-naphtyridine], for which, in series [1] (6 mg/kg injected intravenously), the inhibition at 6 mg/kg turned out to be 90% and the “Duration” value is 40 min. Moreover, in series [1] (setting [8]), the inhibition at 12 mg/kg was found to be 98% and the “Duration” value is recorded as 50 min. The LD50 in series [2] (setting [9]) came to 208 mg/kg. Further, the “Sleeping time of the compound treated groups expressed as percentage to that of the control group” value in series [6] is reported as 132.5%.
On to `C(=C\c1ccccc1)/CN1CCc2ncccc2C1` [Compound 58, 5,6,7,8-tetrahydro-6-cinnamyl-1,6-naphthyridine], for which, in series [1] (setting [8]), the inhibition at 12 mg/kg is 53% and the “Duration” value is 35 min. The molecule also had an LD50 in series [2] (setting [9]) of 263 mg/kg. For the same molecule, in series [3], the change in vivo at 1 mg was 81%. Further, in series [4], the change in vivo at 1 mg/kg turned out to be 22.2%, the “Changes in heart rate” value is “+40 Δ beats/min” and the “Changes in systemic blood pressure” value was -13.3 Δ mmHg.
As to `OC(CCCN1CCCCC1)(c1ccccc1)c1ccccc1` [diphenidol, reference compound], in series [1] (6 mg/kg injected intravenously), the inhibition at 6 mg/kg was found to be 70% and the “Duration” value came out at 45 min. This molecule gave an LD50 in series [2] (setting [9]) of 105 mg/kg. Moreover, in series [7], the “Sleeping time of the compound treated groups expressed as percentage to that of the control group” value is 253.7%.
